In general, IC50 refers to the concentration needed to halve the response being measured.

These results are taken from patent US8697888B2, “Substituted (1-(methylsulfonyl)azetidin-3-yl)(heterocycloalkyl)methanone analogs as antagonists of muscarinic acetylcholine M1 receptors” (Vanderbilt University, priority 2012, dated 2014).

This test deals with T1, mAChR M1 (UniProt P11229).
T1 sequence (P11229 1-460): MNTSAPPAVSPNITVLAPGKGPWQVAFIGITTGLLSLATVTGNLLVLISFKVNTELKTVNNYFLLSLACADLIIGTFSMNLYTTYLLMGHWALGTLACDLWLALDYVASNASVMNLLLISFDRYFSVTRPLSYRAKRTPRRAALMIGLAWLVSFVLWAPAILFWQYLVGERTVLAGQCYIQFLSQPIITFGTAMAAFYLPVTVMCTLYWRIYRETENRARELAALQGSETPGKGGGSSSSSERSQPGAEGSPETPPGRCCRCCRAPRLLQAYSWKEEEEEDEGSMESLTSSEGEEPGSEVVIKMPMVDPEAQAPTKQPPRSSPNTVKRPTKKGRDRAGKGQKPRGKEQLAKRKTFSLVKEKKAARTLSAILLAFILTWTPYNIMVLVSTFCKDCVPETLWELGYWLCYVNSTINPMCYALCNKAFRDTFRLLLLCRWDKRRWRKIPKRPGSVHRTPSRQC
The experiment in a line: mAChR M1 cell-based functional assay (calcium mobilization, antagonist mode). The conditions noted are these: for IC50: concentration of antagonist decreasing calcium flux by 50%, EC80 acetylcholine response, CHO-K1 cells expressing mAChR M1, read-out: Potency (IC50). The source says:
Chinese hamster ovary (CHO-K1) cells stably expressing rat (r)M1 were purchased from the American Type Culture Collection and cultured according to their indicated protocol. CHO cells stably expressing human (h)M2, hM3, and hM5 were described previously (Levey, et al., 1991); hM1 and hM4 cDNAs were purchased from Missouri S&T cDNA Resource; rM4 cDNA was provided by T. I. Bonner (National Institutes of Health, Bethesda, Md.). rM2 and rM3 were cloned from a rat brain cDNA library and sequence verified. hM1, rM2, rM3, hM4, and rM4 cDNAs were used to stably transfect CHO-K1 cells purchased from the American Type Culture Collection using Lipofectamine-2000. To make stable rM2, hM2, rM3, hM4, and rM4 cell lines for use in calcium mobilization assays, these cells also were stably transfected with a chimeric G-protein (Gqi5) (provided by B. R. Conklin, University of California, San Francisco) using Lipofectamine 2000. rM1, hM1, rM3, hM3, rM5, and hM5 cells were grown in Ham's F-12 medium containing 10% heat-inactivated fetal bovine serum (FBS), 20 mM HEPES, and 50 μg/mL G418 sulfate. rM2-Gqi5, hM2-Gqi5, and hM4-Gqi5 cells were grown in the same medium also containing 500 μg/mL Hygromycin B. Stable rM4-Gqi5 cells were grown in DMEM containing 10% heat-inactivated FBS, 20 mM HEPES, 400 μg/mL G418 sulfate, and […].
For high throughput measurement of antagonist inhibited increases in intracellular calcium, CHO-K1 cells stably expressing muscarinic receptors were plated in growth medium lacking G418 and hygromycin at 15,000 cells/20 μL/well in Greiner 384-well black-walled, tissue culture (TC)-treated, clear-bottom plates (VWR). Cells were incubated overnight at 37° C. and 5% CO2. The next day, cells were washed using an ELX 405 (BioTek) with four washes (80 μL) of assay buffer then aspirated to 20 μL. Next, 20 μL of 16 μM Fluo-4/acetoxymethyl ester (Invitrogen, Carlsbad, Calif.) prepared as a 2.3 mM stock in DMSO and mixed in a 1:1 ratio with 10% (w/v) Pluronic F-127 and diluted in assay buffer was added to the wells and the cell plates were incubated for 50 min at 37° C. and 5% CO2. Dye was removed by washing with the ELX 405 (four 80 μL washes of assay buffer) then aspirated to 20 μL. Compound master plates were formatted in an 11 point CRC format (1:3 dilutions) in 100% DMSO with a starting concentration of 10 mM using the BRAVO liquid handler (Agilent). Test compound CRCs were then transferred to daughter plates (240 nL) using the Echo acoustic plate reformatter (Labcyte, Sunnyvale, Calif.) and then diluted into assay buffer (40 μL) to a 2× stock using a Thermo Fisher Combi (Thermo Fisher Scientific, Waltham, Mass.).
Calcium flux was measured using the Functional Drug Screening System (FDSS) 6000 (Hamamatsu Corporation, Tokyo, Japan) as an increase in the fluorescent static ratio. Compounds were applied to cells (20 μL, 2×) using the automated system of the FDSS 6000 at 4 s into the 300 s protocol and the data were collected at 1 Hz. At 144 s into the 300 s protocol, 10 μL of an EC20 concentration of the muscarinic receptor agonist acetylcholine was added (5×), followed by the addition of 12 μL an EC80 concentration of acetylcholine at the 230 s time point (5×). Agonist activity was analyzed as a concentration-dependent increase in calcium mobilization upon compound addition. Positive allosteric modulator activity was analyzed as a concentration-dependent increase in the EC20 acetylcholine response. Antagonist activity was analyzed as a concentration-dependent decrease in the EC80 acetylcholine response. Concentration-response curves were generated using a four-parameter logistical equation in XLfit curve fitting software (IDBS, Bridgewater, N.J.) for Excel (Microsoft, Redmond, Wash.) or Prism (GraphPad Software, Inc., San Diego, Calif.).
The calcium mobilization assay was used to determine “potency”.
(In general: A change in cytosolic calcium serves as a functional read-out for many receptors and channels.)

Where [1] appears, read: dash = baseline or about zero remaining activity (table footnote).
Setting [2] is: activity remaining at top dose of 30 μM test compound, as percentage of the response to an approx. EC80 concentration of ACh.

Molecules are shown by their SMILES. Marks after values point to notes of the source that are not given here.

Regarding `O=C(C1CN(S(=O)(=O)c2ccc3c(c2)OCO3)C1)N1CC2CN(c3ccncc3)CC2C1` (centres unmarked) [B57], the half-maximal inhibitory concentration (IC50) was 0.95 µM. Besides, under setting [1], the “Remaining Activity (%)” value is recorded as “— (Unless otherwise indicated with a numerical value, the percent remaining activity is baseline or about zero, i.e. as indicated by “—”)”. Consider `O=C(C1CN(S(=O)(=O)c2cccc(Cl)c2Cl)C1)N1CC2CN(c3ccncc3)CC2C1` (centres unmarked) [B58], for which the “Remaining Activity (%)” value under setting [1] is listed as “— (Unless otherwise indicated with a numerical value, the percent remaining activity is baseline or about zero, i.e. as indicated by “—”)”. Consider `O=C(C1CN(S(=O)(=O)c2cccc(F)c2)C1)N1CC2CN(c3ccncc3)CC2C1` (centres unmarked) [B59], for which the IC50 was found to be 2.1 µM. Besides, under setting [1], the “Remaining Activity (%)” value is “— (Unless otherwise indicated with a numerical value, the percent remaining activity is baseline or about zero, i.e. as indicated by “—”)”. Regarding `Cc1cc2c(S(=O)(=O)N3CC(C(=O)N4CC5CN(c6ccncc6)CC5C4)C3)cccc2cn1` (centres unmarked) [B60], the “Remaining Activity (%)” value under setting [1] is “— (Unless otherwise indicated with a numerical value, the percent remaining activity is baseline or about zero, i.e. as indicated by “—”)”. Consider `O=C(C1CN(S(=O)(=O)c2cccc3nonc23)C1)N1CCC(O)(c2ccncc2)CC1` [B61], for which the half-maximal inhibitory concentration (IC50) was greater than 10 µM. Besides, the “Remaining Activity (%)” value under setting [2] is on record as “≧80% **”. Consider `Cn1ccnc1N1CCN(C(=O)C2CN(S(=O)(=O)c3cccc4nonc34)C2)CC1` [B62], for which the half-maximal inhibitory concentration (IC50) is greater than 10 µM. For the same compound, under setting [2], the “Remaining Activity (%)” value is listed as “≧80%”.

As to `O=C(C1CN(S(=O)(=O)c2ccc(OC(F)F)cc2)C1)N1CCN(c2ccncc2)CC1` [B63], the IC50 was greater than 10 µM. Further, the “Remaining Activity (%)” value under setting [2] is given as “≧80%”. The matching figures for `Cn1ccc(-c2ccccc2S(=O)(=O)N2CC(C(=O)N3CCN(c4ccncc4)CC3)C2)n1` [B64]: greater than 10 µM and “≧80%”. The matching figures for `Cn1nccc1-c1cccc(S(=O)(=O)N2CC(C(=O)N3CCN(c4ccncc4)CC3)C2)c1` [B65]: greater than 10 µM and “≧80%”. The matching figures for `Cn1cnc(S(=O)(=O)N2CC(C(=O)N3CCN(c4ccncc4)CC3)C2)c1` [B66]: greater than 10 µM and “≧80%”. In the case of `O=C(C1CN(S(=O)(=O)c2ccncc2)C1)N1CCN(c2ccncc2)CC1` [B67], the IC50 is greater than 10 µM. The “Remaining Activity (%)” value under setting [2] was “≧80%”. The matching figures for `O=C(C1CN(S(=O)(=O)c2cccc(OC(F)F)c2)C1)N1CCN(c2ccncc2)CC1` [B68]: greater than 10 µM and “≧80%”. The matching figures for `O=C(C1CN(S(=O)(=O)c2cccc(OC(F)(F)F)c2)C1)N1CCN(c2ccncc2)CC1` [B69]: greater than 10 µM and “≧80%”. The matching figures for `O=C(C1CN(S(=O)(=O)c2ccc3[nH]c(=O)sc3c2)C1)N1CCN(c2ccncc2)CC1` [B70]: greater than 10 µM and “≧80%”.

For the compound `Cc1nc(-c2cccc(S(=O)(=O)N3CC(C(=O)N4CCN(c5ccncc5)CC4)C3)c2)no1` [B71], the IC50 is greater than 10 µM. The “Remaining Activity (%)” value under setting [2] is on record as “≧80%”. The matching figures for `O=C(C1CN(S(=O)(=O)c2cccc(-n3cnnn3)c2)C1)N1CCN(c2ccncc2)CC1` [B72]: greater than 10 µM and “≧80%”. The matching figures for `CN1CCOc2cc(S(=O)(=O)N3CC(C(=O)N4CCN(c5ccncc5)CC4)C3)cnc21` [B73]: greater than 10 µM and “≧80%”.

As for `O=C(C1CN(S(=O)(=O)c2ccc(N3CCOCC3)nc2)C1)N1CCN(c2ccncc2)CC1` [B74], the half-inhibitory concentration (IC50) is greater than 10 µM. Moreover, the “Remaining Activity (%)” value under setting [2] is listed as “≧80%”.

Consider `O=C(C1CN(S(=O)(=O)c2ccc3[nH]c(=O)oc3c2)C1)N1CCN(c2ccncc2)CC1` [B75], for which the 50% inhibitory concentration (IC50) was greater than 10 µM. Also, the “Remaining Activity (%)” value under setting [2] is “≧80%”.

With `O=C(C1CN(S(=O)(=O)c2ccc3[nH]ncc3c2)C1)N1CCN(c2ccncc2)CC1` [B76], the IC50 was greater than 10 µM. Also, the “Remaining Activity (%)” value under setting [2] is recorded as “≧80%”. As for `O=C(C1CN(S(=O)(=O)c2ccc3ccccc3c2)C1)N1CCN(c2ccncc2)CC1` [B77], the IC50 was greater than 10 µM. Besides, the “Remaining Activity (%)” value under setting [2] is listed as “≧80%”. The matching figures for `O=C1CCc2cc(S(=O)(=O)N3CC(C(=O)N4CCN(c5ccncc5)CC4)C3)ccc2N1` [B79]: greater than 10 µM and “≧80%”. The matching figures for `CN1CCN(C(=O)C2CN(S(=O)(=O)c3cccc4cnccc34)C2)CC1` [B80]: greater than 10 µM and “≧80%”.

In the case of `O=C(C1CN(S(=O)(=O)C2CCOCC2)C1)N1CCN(c2ccncc2)CC1` [B81], the 50% inhibitory concentration (IC50) is greater than 10 µM. Moreover, the “Remaining Activity (%)” value under setting [2] was “≧80%”. The matching figures for `O=C(NC1CCN(c2ccccc2)C1)C1CN(S(=O)(=O)c2cccc3cnccc23)C1` (centres unmarked) [B82]: greater than 10 µM and “≧80%”.

With `Cn1cc(S(=O)(=O)N2CC(C(=O)N3CC4CN(c5ccncc5)CC4C3)C2)cn1` (centres unmarked) [B83], the concentration for half-maximal inhibition (IC50) is greater than 10 µM. Moreover, the “Remaining Activity (%)” value under setting [2] is given as “≧80%”. The matching figures for `CC(C)S(=O)(=O)N1CC(C(=O)N2CC3CN(c4ccncc4)CC3C2)C1` (centres unmarked) [B84]: greater than 10 µM and “≧80%”. The matching figures for `CCC(C)S(=O)(=O)N1CC(C(=O)N2CC3CN(c4ccncc4)CC3C2)C1` (centres unmarked) [B85]: greater than 10 µM and “≧80%”. The matching figures for `O=C(C1CN(S(=O)(=O)C2CCCCC2)C1)N1CC2CN(c3ccncc3)CC2C1` (centres unmarked) [B86]: greater than 10 µM and “≧80%”.
